From PMC10812672, “Short Antimicrobial Peptide Derived from the Venom Gland Transcriptome of Pamphobeteus verdolaga Increases Gentamicin Susceptibility of Multidrug-Resistant Klebsiella pneumoniae” (Antibiotics, 2023)
Ends that are not written are not given here.

Tested on: P. aeruginosa ATCC® 9027
Format: cell-based, Pseudomonas aeruginosa
Procedure: The nine AMPs identified in the initial screening were evaluated at concentrations between 1.56–200 µM, against E. coli ATCC® 25922, S. aureus ATCC® 29213, E. faecalis ATCC® 49532, P. aeruginosa ATCC® 9027, and K. pneumoniae ATCC® BAA-1705 (Supplementary Figures S2–S6). […] Only PvAMP66 and PvAMP172 reached the MBC for S. aureus at 50 µM and 100 µM, respectively (Table 2).
The evaluation of the antimicrobial activity of the peptides was conducted using the CLSI’s broth microdilution method for bacterial susceptibility testing. For the screening phase, peptides were evaluated at a single 30 μM concentration, in triplicate and in three independent assays, against the E. coli ATCC® 8739, E. coli ATCC® 25922, S. aureus ATCC® 6538, or S. aureus ATCC® 29213 reference USP and CLSI strains. For the determination of MIC, MBC, or IC50, peptides or antibiotics were evaluated in concentrations between 1.56–200 µM. These evaluations were conducted in triplicate and in three independent assays, against the E. coli ATCC® 25922, S. aureus ATCC® 29213, E. faecalis ATCC® 49532, P. aeruginosa ATCC® 9027, and K. pneumoniae ATCC® BAA-1705, or the clinically isolated MDR strain. In detail, 1 mL of a glycerol stock solution of the ATCC® or clinically isolated bacterial strain was added to 9 mL of Mueller-Hinton Broth and incubated for 18 h, 180 rpm and 37 °C (Incubator 1000, Heidolph Instruments, Schwabach, Germany). After the incubation, 1 mL of the previous solution was transferred to a new recipient containing 9 mL of fresh Mueller-Hinton broth and incubated for 4 h, 180 rpm and 37 °C (Incubator 1000, Heidolph Instruments, Schwabach, Germany). During the second incubation, the peptides or the antibiotics were dissolved in PBS pH 7.20 in concentrations between 19.53–2500 µM (MC5 Micro Balance, Sartorius AG, Göttingen, Germany). An amount of 10 µL of either peptide or antibiotic was dispensed in triplicate in 96-well flat bottom culture plates, along with 10 µL of PBS (Negative activity control), BTM-P1 (Positive activity control), or 10 µL of Mueller-Hinton broth (Blank); then, 110 µL of Mueller-Hinton broth was poured in all wells. Following this, the bacteria were suspended in Mueller-Hinton broth up to a concentration of approximately 1.50 × 10^8 CFU/mL, as measured by optical density at 600 nm between 0.06 to 0.11 (0.5 McFarland standard), in a Multiskan SkyHigh spectrophotometer (ThermoFisher Scientific, Waltham, MA, USA). Amounts of 5 µL of the 1.50 × 10^8 CFU/mL suspension were added to each well (except for the blank) for a final well concentration of approximately 6 × 10^6 CFU/mL. The plate was incubated for 24 h at 37 °C (BE 500, Memmert GmbH, Büchenbach, Germany) and optical density was measured at 600 nm in a Multiskan SkyHigh spectrophotometer (ThermoFisher Scientific, Waltham, MI, USA). Following the measurement of optical density, plates were visually inspected to determine the MIC. Subsequently, 100 µL of the concentration associated to the MIC and 100 µL of the next higher concentration were added to Petri dishes containing Mueller-Hinton Agar. The dishes were then incubated for 24 h at 37 °C (BE 500, Memmert GmbH, Büchenbach, Germany). After incubation, the Petri dishes were visually inspected, and the MBC was determined in the absence of growth. IC50 values were interpolated from regressions with correlation values above 0.70. Growth inhibition percentages were calculated as follows: Growth inhibition %=1−AbsPEPTIDE or ANTIBIOTIC−Median AbsBLANK/Median AbsPBS−Median AbsBLANK×100

WKKIKKFF-NH2 [PvAMP66] gave an MIC (1.56–200 µM, 24 h 37 °C, visual inspection, triplicate, three independent assays) of 12.5 µM, an IC50 (growth inhibition OD600, 95% confidence interval in parentheses) of 12.7 µM and an MBC (plating on Mueller-Hinton agar, absence of growth) of 12.5 µM.
